Results reported in PMC6901909, “Synergy Pattern of Short Cationic Antimicrobial Peptides Against Multidrug-Resistant Pseudomonas aeruginosa” (Frontiers in Microbiology, 2019).
In brackets after ≈: the same amount, converted by molar mass. Read-outs that look alike come from different tables or passages of the source.

Assays:
Experiment in all cases: microbe, parasite or virus in culture
Assay type in all cases: cell-based, Pseudomonas aeruginosa
MDR P. aeruginosa PA 910 = details: Pseudomonas aeruginosa
How it was run: (§1)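 Clinical and municipal waste-water MDR isolates were tested by broth microdilution in Mueller-Hinton broth with twofold serial dilutions at 2–5 10^5 CFU/ml. Plates were incubated 18 h at 37°C in polypropylene plates. MIC was read visually.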

MDR P. aeruginosa PA 927 = details: Pseudomonas aeruginosa; conventional antibiotics; microdilution, Mueller-Hinton broth, 2–5 10^5 CFU/ml, 18 h at 37°C, read visually; at least three repeats (n = 3)
How it was run: as §1

MDR P. aeruginosa PA253 = details: Pseudomonas aeruginosa; conventional antibiotics; microdilution, Mueller-Hinton broth, 2–5 10^5 CFU/ml, 18 h at 37°C, read visually; at least three repeats (n = 3)
How it was run: as §1

MDR P. aeruginosa PA 915 = details: Pseudomonas aeruginosa; conventional antibiotics; microdilution, Mueller-Hinton broth, 2–5 10^5 CFU/ml, 18 h at 37°C, read visually; at least three repeats (n = 3)
How it was run: as §1

MDR P. aeruginosa PA 923 = details: Pseudomonas aeruginosa; conventional antibiotics; microdilution, Mueller-Hinton broth, 2–5 10^5 CFU/ml, 18 h at 37°C, read visually; at least three repeats (n = 3)
How it was run: as §1

P. aeruginosa PA01-wt = details: Pseudomonas aeruginosa, PA01WT; conventional antibiotics; microdilution, Mueller-Hinton broth, 2–5 10^5 CFU/ml, 18 h at 37°C, read visually; at least three repeats (n = 3)
MDR P. aeruginosa PA 919 = details: Pseudomonas aeruginosa; conventional antibiotics; microdilution, Mueller-Hinton broth, 2–5 10^5 CFU/ml, 18 h at 37°C, read visually; at least three repeats (n = 3)
How it was run: as §1

[1] = 18 h, antibiotic alone, as listed in the FIC table, read-out: MIC against PA910 in μM (antibiotics, head of Table 4)
[2] = conventional antibiotics, microdilution, Mueller-Hinton broth, 2–5 10^5 CFU/ml, 18 h at 37°C, read visually, at least three repeats (n = 3), read-out: MIC PA 910

Compound	MIC (MDR P. aeruginosa PA 910; [1]) [µM]	MIC (MDR P. aeruginosa PA 910; [2]) [µM]	MIC (MDR P. aeruginosa PA 927) [µM]	MIC (MDR P. aeruginosa PA253) [µM]	MIC (MDR P. aeruginosa PA 915) [µM]	MIC (MDR P. aeruginosa PA 923) [µM]	MIC (P. aeruginosa PA01-wt) [µM]	MIC (MDR P. aeruginosa PA 919) [µM]
NCC[C@H](O)C(=O)N[C@@H]1C[C@H](N)[C@@H](O[C@H]2O[C@H](CN)[C@@H](O)[C@H](O)[C@H]2O)[C@H](O)[C@H]1O[C@H]1O[C@H](CO)[C@@H](O)[C@H](N)[C@H]1O [Amikacin]	2 to 4	2 to 4 (≈ 1.17 to 2.34 µg/mL)	4 (≈ 2.34 µg/mL)	8 to 16 (≈ 4.68 to 9.37 µg/mL)	4 (≈ 2.34 µg/mL)	4 (≈ 2.34 µg/mL)	1 (≈ 0.586 µg/mL)	32 (≈ 18.7 µg/mL)
CO/N=C(\C(=O)N[C@@H]1C(=O)N2C(C(=O)[O-])=C(C[N+]3(C)CCCC3)CS[C@H]12)c1csc(N)n1 [Cefepime]	128	64 (≈ 30.8 µg/mL)	128 (≈ 61.5 µg/mL)	> 128	32 (≈ 15.4 µg/mL)	64 (≈ 30.8 µg/mL)	8 (≈ 3.84 µg/mL)	16 (≈ 7.69 µg/mL)
CC(C)(O/N=C(\C(=O)N[C@@H]1C(=O)N2C(C(=O)[O-])=C(C[n+]3ccccc3)CS[C@H]12)c1csc(N)n1)C(=O)O [Ceftazidime]	64	128 (≈ 70 µg/mL)	> 128	> 128	4 (≈ 2.19 µg/mL)	128 (≈ 70 µg/mL)	4 (≈ 2.19 µg/mL)	8 (≈ 4.37 µg/mL)
CC[C@H]1OC(=O)[C@H](C)[C@@H](O[C@H]2C[C@@](C)(OC)[C@@H](O)[C@H](C)O2)[C@H](C)[C@@H](O[C@@H]2O[C@H](C)C[C@H](N(C)C)[C@H]2O)[C@](C)(O)C[C@@H](C)C(=O)[C@H](C)[C@@H](O)[C@]1(C)O [Erythromycin]	128	128 (≈ 93.9 µg/mL)	16 (≈ 11.7 µg/mL)	64 (≈ 47 µg/mL)	64 (≈ 47 µg/mL)	256 (≈ 188 µg/mL)	128 (≈ 93.9 µg/mL)	128 (≈ 93.9 µg/mL)
